Assays:
[1] = physchem
Protocol: Measurement of the water solubility of the test compounds is accomplished by using methods well known to those skilled in the art. […] The total volume of the solution is measured. […] This is a clear indication of an unexpectedly high degree of bioavailability of the compositions of the invention. Highly water soluble medicinal preparations, when administered orally, result in efficient absorption of such preparations from the gastrointestinal tract into systemic circulation. Such preparations permit rapid absorption into the blood stream resulting in a high concentration of the active agent in the blood. Furthermore, water soluble preparations are especially suitable for parenteral administration, for example, intravenous administration.

[2] = Air and light sensitivity observed on isolation and storage; assay type: physicochemical; conditions: isolated solid; therefore stored in an amber vial under nitrogen
Protocol: The reaction flask was covered in foil to protect it from light. After stirring for 1 h at room temperature, the mixture was chilled to 0° C. for 1 h, and then filtered under an atmosphere of nitrogen. The solid was washed with 50 mL ice-cold acetonitrile and then quickly transferred to a foil-covered round bottom flask and placed under high vac.

| SMILES | solubility ([1]; water, thermodynamic from solid) | sensitivity to air and light [2] | times more soluble in water than EPA ([1]; ratio of water solubility versus EPA itself) |
| --- | --- | --- | --- |
| CC/C=C\C/C=C\C/C=C\C/C=C\C/C=C\CCCC(=O)O [EPA, (5Z,8Z,11Z,14Z,17Z)-eicosa-5,8,11,14,17-pentaenoic acid, reference compound] | < 200 µg/mL | – | – |
| CC/C=C\C/C=C\C/C=C\C/C=C\C/C=C\CCCC(=O)O.CN(C)C(=N)NC(=N)N [Example 1, {[Amino(imino)methyl]amino}(dimethylamino)methaniminium (5Z,8Z,11Z,14Z,17Z)-eicosa-5,8,11,14,17-pentaenoate] | – | air and light sensitive | ≥ 250 times |

From patent US9012507B2, “Lipid-lowering antidiabetic agent” (Thetis Pharmaceuticals LLC, priority 2011, dated 2015)
